Data from patent US20230303710A1, “METHODS AND COMPOSITIONS FOR INHIBITION OF DIHYDROOROTATE DEHYDROGENASE IN COMBINATION WITH AN ANTI-CD38 THERAPEUTIC AGENT” (OHIO STATE INNOVATION FOUNDATION, priority 2019, published 2023).

Key:
[1] = tested on: MV4-11 cells; assay: MV4-11 xenograft (secondary engraftment) survival study in NSG mice; assay type: in vivo; settings: Cpd3 50 mg/kg PO MWF, daratumumab 1 µg/g IP TF
Experimental: FIGS. 2A-2D show representative data for the effect of a representative DHODH inhibitor in combination with an anti-CD38 antibody in a mouse xenograft model. FIG. 2A show representative data for percent survival versus time post-engraftment. Briefly, NSG mice were injected with 0.3 × 10^6 spleen cells from an MV4-11 engrafted leukemic donor mouse (N=7 per group). Starting at day 7 post-engraftment, mice were treated with vehicle; 50 mg/kg Cpd3 (PO; indicated as “Cpd3 PO” in the figure) on a dosing schedule of Monday/Wednesday/Friday (MWF); 1 µg/g daratumumab (IP; indicated as “Dara IP” in the figure) on a dosing schedule of Tuesday and Friday (TF); or Cpd3 and daratumumab combination (indicated as “Cpd3+Dara” in the figure). The Cpd3 and daratumumab combination treatment comprised dosing with 50 mg/kg Cpd3 on a dosing scheduled of Monday/Wednesday/Friday and dosing with 1 µg/g daratumumab on a dosing schedule of Tuesday and Friday (TF). Mice were monitored until reaching early/end removal criteria (ERC) and overall survival was calculated using Kapler Meyer analysis. The arrow indicates start of treatment. […] The treatment type is indicated below each photographic image as outlined for FIG. 2A. […] Weight loss is typically associated with leukemia progression and has also been associated with DHODH inhibitor treatment. […] Briefly, Spleens were isolated from the animals from each treatment group as they reached ERC. The percentage of human CD45+ cells in the spleen were determined by flow cytometry.
Xenograft Model Methodology. Animal studies were approved by the Institutional Laboratory Animal Care and Use Committee (IACUC) at the Ohio State University. 1E7 M4-11 cells were engrafted intravenously into NSG mice (males, 12-week old, strain NOD.Cg-Prkdcscid ll2rgtm1Wjl/SzJ). These mice were allowed to develop a fatal leukemia, at which point splenocytes containing leukemia cells were collected and cryopreserved. […] Overall survival was calculated using Kapler Meyer analysis. […]

[2] = tested on: MV-411 cells with mutant p53; assay: CD38 surface expression by flow cytometry in MV-411 cells with mutant p53; assay type: cell-based; settings: 1 µM, 72 hours, versus vehicle
Experimental: (§1) FIGS. 1A-1B show representative data for the effect of a representative DHODH inhibitor on the expression of CD38 in AML cells. Briefly, MV-411 cells with wild type (WT) p53 (FIG. 1A) or mutant p53 (FIG. 1B) were treated with brequinar (BRQ, 1 µM), or Cpd3 (1 µM) for 72 hours, and then the CD38 surface expression was determined by flow cytometry. The CD38 mean fluorescent intensity (MFI) is calculated based on the X-median expression.
(§2) MV-411 cells with wild type (WT) p53 or mutant p53 were treated with brequinar (BRQ, 1 µM), or Cpd3 (1 µM) for 72 hours. CD38 surface expression was determined by flow cytometry. The CD38 mean fluorescent intensity (MFI) is calculated based on the X-median expression. FIG. 1A show data obtained with MV-411 having wild type p53. […] FIG. 1B show the results obtained with MV-411 having a mutant p53.

[3] = tested on: MV-411 cells with wild type (WT) p53; assay: CD38 surface expression by flow cytometry in MV-411 cells with wild type p53; assay type: cell-based; settings: 1 µM, 72 hours, versus vehicle
Experimental: as §1, §2

[4] = tested on: MOLM-13 cells; assay: MOLM-13 xenograft survival study in NCG mice; assay type: in vivo; settings: Cpd4 10 mg/kg PO TIWK (MWF); Daratumumab 1 µg/g IP TF; Isatuximab 2.5 mg/kg IP TF; start 4 days post engraftment; vehicle 16.5
Experimental: Xenograft Model Methodology. Animal studies were performed at Charles River Laboratories (CRL). 1E5 MOLM-13 cells were engrafted intravenously into NCG mice (males, 8-12-week old). 4 days post engraftment, mice were randomly enrolled to receive: • 1. Vehicle • 2. 10 mg/kg Cpd 53 orally (daily) • 3. 10 mg/kg Cpd 53 orally (TIWK, Monday, Wednesday, and Friday) • 4. 4 mg/kg BAY2402234 orally (daily) • 5. 1 µg/g Daratumumab via intraperitoneal injection (BIWK, Tuesday and Friday) • 6. 2.5 µg/g Isatuximab via intraperitoneal injection (BIWK, Tuesday and Friday) • 7. Cpd4 (daily) and Daratumumab (BIWK) combination • 8. Cpd4 (TIWK) and Daratumumab (BIWK) combination • 9. BAY2402234 (daily) and Daratumumab (BIWK) combination • 10. Cpd4 (daily) and Isatuximab (BIWK) combination • 11. […]
Procedures used in the study are as follows: • Mice with 1×10^5 MOLM-13 tumor cells in 0% Matrigel iv tail vein. • Study start is 4 days post implant • Animals were randomized into treatment groups based on Day 1 bodyweight. • Cell Injection Volume was 0.2 mL/mouse. • Age at Start Date: 8 to 12 weeks. • Body Weight: qd x 5 then biwk to end • Any individual animal with a single observation of > than 30% body weight loss or three consecutive measurements of >25% body weight loss was euthanized. • Any group with a mean body weight loss of >20 % or >10% mortality ceased dosing. […] Animals were to be monitored individually. […]

[5] = tested on: a variety of unrelated viruses; settings: Harvey et al. (2009) Antiviral Res.; read-out: EC50, inhibition of virus replication in vitro; cited from earlier work

CCOc1ccc(-c2ccc(-c3cc(C(=O)O)c4cc(F)ccc4n3)cc2)cc1 [Cpd3, 2-(4′-ethoxy-[1,1′-biphenyl]-4-yl)-6-fluoroquinoline-4-carboxylic acid]
survival compared to the vehicle treatment control group / other treatment groups ([1]; FIG. 2A): modest improvement in survival
Estimated median survival time (days PE) ([1]; start day 7 post-engraftment, vehicle 35 days): 42 days
N died ([1]; N=7 per group, start day 7 post-engraftment): 7
CD38 surface expression (mean fluorescent intensity) [2]: highly upregulated
CD38 surface expression (mean fluorescent intensity) [3]: upregulated

CCCCOc1cccc(-c2ccc(-c3cc(C(=O)O)c4cc(F)ccc4n3)cc2)c1 [Cpd4, 2-(3′-butoxy-[1,1′-biphenyl]-4-yl)-6-fluoroquinoline-4-carboxylic acid]
Median survival [4]: 43 days

O=C(N[C@@H]1CCCc2c1[nH]c1ccc(Cl)cc21)c1ccccn1 [GSK983]
EC50 [5]: 5 to 20 nM

Cc1c(-c2ccc(-c3ccccc3F)cc2)nc2ccc(F)cc2c1C(=O)O [brequinar, reference compound]
CD38 surface expression (mean fluorescent intensity) [2]: highly upregulated
CD38 surface expression (mean fluorescent intensity) [3]: upregulated
